Laboratory results published in patent US11479556B1, “Bifunctional compounds for degrading BTK via ubiquitin proteosome pathway” (NURIX THERAPEUTICS, INC., priority 2018, dated 2022).

Tests used:
[1] = molecular target: T1, BTK (Homo sapiens, UniProt Q06187); assay: Cellular BTK HTRF assay (BTK degradation) in TMD8 cells; type: cell-based; conditions: four hours incubation, Total-BTK HTRF relative to DMSO-treated cells
T1 construct: endogenous in cells; host or cells: TMD8 cells
Method in brief: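 TMD8 cells were treated with compounds (final DMSO <0.200) for four hours at 37° C, 5% CO2, then lysed for 30 minutes. Total BTK was measured by two-antibody HTRF, taking the 665/620 nm ratio with background subtracted and expressed relative to DMSO-treated cells. DC50 came from four-parameter nonlinear regression.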

[2] = molecular target: T2, Aiolos (Homo sapiens, UniProt Q96SW2+Q9UKT9); assay: Aiolos degradation flow cytometry assay in human PBMCs (T cells); type: cell-based; conditions: 24 hours, T cells (CD3+CD20-), read-out: Aiolos T Cell DC50
T2 construct: Frozen human peripheral blood mononuclear cells (PBMCs) were thawed and treated with DMSO or compound for 24 hours; endogenous in cells; host or cells: human PBMCs (T cells gated CD3+CD20-)
Protocol: Example 67: Aiolos Degradation Assay
Frozen human peripheral blood mononuclear cells (PBMCs) were thawed and treated with DMSO or compound for 24 hours and then fixed and permeabilized using a Foxp3/Transcription Factor Fixation/Permeabilization Kit (eBioscience, 00-5523). Cells were stained with fluorophore-conjugated antibodies against CD20 (Biolegend 302330), CD3 (BD Pharmingen 552127), and Aiolos (Biolegend 371106). An additional set of DMSO-treated PBMCs was stained for CD20, CD3, and an AlexaFluor 647-conjugated mouse IgG1 isotype control antibody (Biolegend 400136). Stained cells were analyzed using an Attune NxT Acoustic Focusing Flow Cytometer (Thermo-Fisher A29004), and data was analyzed using FlowJo (v10.5.3) and GraphPad Prism (v7.00) software. Single lymphocytes were gated for B cells (CD20+CD3−) and T cells (CD3+CD20−), and the geometric mean fluorescence intensity (MFI) of Aiolos was calculated for each population. The MFI of the isotype control was calculated for each population and used to quantify background staining. Percent Aiolos degradation was calculated for each compound-treated sample using the following equation: […]
Four-parameter non-linear regressions were performed in GraphPad Prism 7.02 to obtain DC50 values. Aiolos T Cell DC50 values are provided in Table 4, wherein A<10.0 nM, 10.0 nM≤B≤1000 nM, and 1000 nM<C.

[3] = molecular target: T3, BTK (Mus musculus, UniProt P35991); assay: Mouse BTK degradation assay with oral dosing; type: in vivo; conditions: CD-1 or BALB/c mice, oral gavage (PO); Yes = significant BTK degradation upon oral dosage
T3 construct: from tissue; host or cells: whole blood or spleen of CD-1 or BALB/c mice
Protocol: Example 68: Mouse BTK Degradation Assay with Oral Dosing
A method of determining the pharmacodynamic profile of compounds of the present invention (experimental compound) was performed by dosing either CD-1 or BALB/c mice with the compound. The experimental compound was prepared in a suitable formulation and was administered via oral gavage (PO) at a suitable dose level and frequency as informed by prior pharmacokinetic and tolerability studies. Following administration of the experimental compound, BTK levels in blood or splenocytes are measured using flow cytometry or HTRF. For assessment of BTK levels via flow cytometry, either whole blood or spleen were first treated with ACK RBC lysis buffer to facilitate lysing of red blood cells. Remaining cells were then stained with fluorophore-conjugated antibodies against CD45, TCR beta and CD45R (B220). Cell pellets were washed with 1×PBS and fixed and permeabilized for 24 hrs with Foxp3/Transcription Factor Fixation/Permeabilization Kit. Cells were then stained intracellularly with unconjugated BTK antibody and detected with a fluorophore-conjugated secondary antibody. Stained cells were run on an Attune NxT Acoustic Focusing Flow Cytometer (Thermo-Fisher A29004), and data was analyzed using FlowJo (v10.5.3) and GraphPad Prism (v7.00) software. Lymphocytes were gated for B cells defined as CD45+ TCR beta− B220+ and T cells as CD45+ TCR beta+ B220−. The BTK geometric mean fluorescence intensity (MFI) was calculated for B and T cells. Percent BTK degradation for each experimental compound treated sample was calculated using the equation described below: […]

T2 sequence (Q9UKT9 whole entry): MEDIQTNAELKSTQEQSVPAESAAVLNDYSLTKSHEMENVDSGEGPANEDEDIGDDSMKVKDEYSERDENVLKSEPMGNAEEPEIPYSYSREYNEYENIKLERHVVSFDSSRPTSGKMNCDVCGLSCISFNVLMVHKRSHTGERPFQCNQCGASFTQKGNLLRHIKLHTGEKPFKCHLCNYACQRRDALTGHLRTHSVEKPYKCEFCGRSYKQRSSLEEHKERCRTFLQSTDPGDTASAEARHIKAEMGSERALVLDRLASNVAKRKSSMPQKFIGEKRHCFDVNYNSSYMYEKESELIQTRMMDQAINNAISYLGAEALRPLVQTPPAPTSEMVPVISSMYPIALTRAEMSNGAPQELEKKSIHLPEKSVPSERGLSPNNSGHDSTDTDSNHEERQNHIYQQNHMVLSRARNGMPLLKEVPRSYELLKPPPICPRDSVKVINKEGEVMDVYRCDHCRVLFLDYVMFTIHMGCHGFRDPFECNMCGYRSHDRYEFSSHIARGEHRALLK
T2 sequence (Q96SW2 whole entry): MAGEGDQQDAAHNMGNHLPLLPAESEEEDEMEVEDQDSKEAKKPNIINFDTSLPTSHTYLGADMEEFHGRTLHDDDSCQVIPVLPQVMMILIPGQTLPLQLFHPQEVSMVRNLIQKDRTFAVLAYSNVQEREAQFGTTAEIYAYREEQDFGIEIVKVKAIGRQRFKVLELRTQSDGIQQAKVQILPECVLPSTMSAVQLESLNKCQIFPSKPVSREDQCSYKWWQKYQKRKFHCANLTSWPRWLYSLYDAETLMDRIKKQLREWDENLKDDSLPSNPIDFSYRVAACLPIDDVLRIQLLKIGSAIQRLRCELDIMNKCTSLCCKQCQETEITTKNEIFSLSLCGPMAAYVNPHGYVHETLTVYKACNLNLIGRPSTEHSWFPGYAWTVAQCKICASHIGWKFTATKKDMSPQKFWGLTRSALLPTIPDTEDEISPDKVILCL
T2 sequence (Q16531 whole entry partner): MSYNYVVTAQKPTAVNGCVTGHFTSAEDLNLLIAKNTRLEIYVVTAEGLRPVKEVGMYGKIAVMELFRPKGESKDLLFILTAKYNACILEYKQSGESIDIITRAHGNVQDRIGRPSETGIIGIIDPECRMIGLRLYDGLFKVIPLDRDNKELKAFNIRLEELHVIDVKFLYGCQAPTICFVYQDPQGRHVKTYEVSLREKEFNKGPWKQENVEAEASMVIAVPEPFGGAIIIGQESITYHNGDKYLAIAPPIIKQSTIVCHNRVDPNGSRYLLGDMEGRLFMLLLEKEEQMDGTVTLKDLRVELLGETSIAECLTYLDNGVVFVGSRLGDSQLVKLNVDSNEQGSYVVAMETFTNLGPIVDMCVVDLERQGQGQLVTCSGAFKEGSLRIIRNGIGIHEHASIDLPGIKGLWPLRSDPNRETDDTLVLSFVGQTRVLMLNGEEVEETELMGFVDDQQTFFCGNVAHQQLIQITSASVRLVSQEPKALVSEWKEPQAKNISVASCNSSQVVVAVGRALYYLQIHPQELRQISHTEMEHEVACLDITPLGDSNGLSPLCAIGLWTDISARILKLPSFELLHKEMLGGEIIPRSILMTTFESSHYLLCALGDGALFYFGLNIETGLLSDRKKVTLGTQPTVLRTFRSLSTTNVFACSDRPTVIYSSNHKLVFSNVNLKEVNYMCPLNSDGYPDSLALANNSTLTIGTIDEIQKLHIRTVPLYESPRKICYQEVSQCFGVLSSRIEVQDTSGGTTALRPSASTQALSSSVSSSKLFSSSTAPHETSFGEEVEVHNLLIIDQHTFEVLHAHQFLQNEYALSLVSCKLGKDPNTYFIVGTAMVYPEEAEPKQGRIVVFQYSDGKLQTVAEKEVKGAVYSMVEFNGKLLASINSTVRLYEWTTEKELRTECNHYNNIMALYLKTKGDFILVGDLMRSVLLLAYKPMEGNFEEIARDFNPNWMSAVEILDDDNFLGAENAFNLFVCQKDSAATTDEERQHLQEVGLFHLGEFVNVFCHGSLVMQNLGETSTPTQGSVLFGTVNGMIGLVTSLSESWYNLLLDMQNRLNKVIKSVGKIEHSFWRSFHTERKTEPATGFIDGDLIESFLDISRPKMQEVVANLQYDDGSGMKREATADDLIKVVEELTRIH
T1 sequence (Q06187 whole entry): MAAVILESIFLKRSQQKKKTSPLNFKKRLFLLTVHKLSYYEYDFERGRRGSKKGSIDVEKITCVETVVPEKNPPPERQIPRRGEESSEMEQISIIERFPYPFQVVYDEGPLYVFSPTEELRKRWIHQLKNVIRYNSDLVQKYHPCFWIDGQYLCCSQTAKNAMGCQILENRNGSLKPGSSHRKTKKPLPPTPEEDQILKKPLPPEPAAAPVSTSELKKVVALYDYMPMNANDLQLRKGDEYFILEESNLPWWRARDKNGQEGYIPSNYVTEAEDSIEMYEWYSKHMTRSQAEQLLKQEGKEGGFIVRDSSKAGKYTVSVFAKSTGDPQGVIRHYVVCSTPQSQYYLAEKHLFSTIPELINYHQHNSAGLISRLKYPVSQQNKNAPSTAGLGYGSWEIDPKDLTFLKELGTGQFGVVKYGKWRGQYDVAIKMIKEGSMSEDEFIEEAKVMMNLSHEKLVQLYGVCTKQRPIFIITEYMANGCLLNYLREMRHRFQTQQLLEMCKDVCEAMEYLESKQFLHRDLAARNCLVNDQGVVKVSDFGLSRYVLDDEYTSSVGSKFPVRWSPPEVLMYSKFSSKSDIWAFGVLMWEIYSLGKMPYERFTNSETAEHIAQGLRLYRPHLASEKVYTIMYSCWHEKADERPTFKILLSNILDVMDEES
T3 sequence (P35991 whole entry): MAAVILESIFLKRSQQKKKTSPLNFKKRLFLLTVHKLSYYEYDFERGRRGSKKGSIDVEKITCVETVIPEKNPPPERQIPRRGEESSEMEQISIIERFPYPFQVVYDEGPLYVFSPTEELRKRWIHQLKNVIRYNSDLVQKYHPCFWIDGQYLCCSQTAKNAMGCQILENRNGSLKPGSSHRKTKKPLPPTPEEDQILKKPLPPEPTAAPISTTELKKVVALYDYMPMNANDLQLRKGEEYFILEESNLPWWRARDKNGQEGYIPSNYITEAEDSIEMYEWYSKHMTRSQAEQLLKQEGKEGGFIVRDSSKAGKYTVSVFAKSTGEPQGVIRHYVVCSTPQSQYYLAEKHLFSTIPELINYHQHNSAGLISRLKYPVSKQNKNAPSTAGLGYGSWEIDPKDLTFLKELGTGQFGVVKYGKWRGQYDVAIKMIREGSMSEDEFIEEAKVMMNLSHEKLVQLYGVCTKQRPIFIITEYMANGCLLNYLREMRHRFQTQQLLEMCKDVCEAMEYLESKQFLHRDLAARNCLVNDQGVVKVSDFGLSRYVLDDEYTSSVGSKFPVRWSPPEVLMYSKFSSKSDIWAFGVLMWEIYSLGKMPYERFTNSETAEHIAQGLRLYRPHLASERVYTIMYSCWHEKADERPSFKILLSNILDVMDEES

SMILES: CN1CCN([C@@H]2CCCN(c3cnc(C(N)=O)c(Nc4ccc(N5CC6(C5)CN(c5ccc7c(c5)C(=O)N(C5CCC(=O)NC5=O)C7=O)C6)cc4)n3)C2)C1=O (stereo partly drawn) [Compound 34, 3-((4-(6-(2-(2,6-dioxopiperidin-3-yl)-1,3-dioxoisoindolin-5-yl)-2,6-diazaspiro[3.3]heptan-2-yl)phenyl)amino)-5-((R)-3-(3-methyl-2-oxoimidazolidin-1-yl)piperidin-1-yl)pyrazine-2-carboxamide]
- DC50 [1]: < 0.005 µM
- DC50 [2]: 0.01 to 1 µM

SMILES: CN1CCN([C@@H]2CCCN(c3cnc(C(N)=O)c(Nc4ccc(C5CN(C6CCN(c7ccc8c(c7)C(=O)N(C7CCC(=O)NC7=O)C8=O)CC6)C5)cc4)n3)C2)C1=O (stereo partly drawn) [Compound 37]
- DC50 [1]: < 0.005 µM
- DC50 [2]: 0.01 to 1 µM

SMILES: CN1CCN([C@@H]2CCCN(c3cnc(C(N)=O)c(Nc4ccc(N5CCN(C[C@@H]6[C@H]7CN(c8ccc9c(c8)C(=O)N(C8CCC(=O)NC8=O)C9=O)C[C@@H]67)CC5)cc4)n3)C2)C1=O (stereo partly drawn) [Compound 38]
- DC50 [1]: < 0.005 µM
- DC50 [2]: 0.01 to 1 µM

SMILES: CN1CCN([C@@H]2CCCN(c3cnc(C(N)=O)c(Nc4ccc(C5CCN(C[C@H]6CCN(c7ccc8c(c7)C(=O)N(C7CCC(=O)NC7=O)C8=O)C6)CC5)cc4)n3)C2)C1=O (stereo partly drawn) [Compound 44]
- DC50 [1]: < 0.005 µM
- BTK degradation after oral dosing [3]: Yes

SMILES: CN1CCN([C@@H]2CCCN(c3cnc(C(N)=O)c(Nc4ccc(C5CCN(CC6CCN(c7ccc8c(c7)C(=O)N(C7CCC(=O)NC7=O)C8=O)CC6)CC5)cc4)n3)C2)C1=O (stereo partly drawn) [Compound 51]
- DC50 [1]: < 0.005 µM
- DC50 [2]: 0.01 to 1 µM

SMILES: CN1CCN([C@@H]2CCCN(c3cnc(C(N)=O)c(Nc4ccc(C5CCN(C6CN(c7ccc8c(c7)C(=O)N(C7CCC(=O)NC7=O)C8=O)C6)CC5)cc4)n3)C2)C1=O (stereo partly drawn) [Compound 53]
- DC50 [1]: < 0.005 µM
- DC50 [2]: 0.01 to 1 µM

SMILES: CN1CCN([C@@H]2CCCN(c3cnc(C(N)=O)c(Nc4ccc(N5CCN(C(=O)CCOCCCc6ccc7c(c6)C(=O)N(C6CCC(=O)NC6=O)C7)CC5)cc4)n3)C2)C1=O (stereo partly drawn) [Compound 61]
- DC50 [1]: < 0.005 µM
- DC50 [2]: > 1 µM

SMILES: CN1CCN([C@@H]2CCCN(c3cnc(C(N)=O)c(Nc4ccc(OCCCNc5ccc6c(c5)C(=O)N(C5CCC(=O)NC5=O)C6=O)cc4)n3)C2)C1=O (stereo partly drawn) [Compound 64]
- DC50 [1]: > 0.015 µM
- DC50 [2]: 0.01 to 1 µM

SMILES: NC(=O)c1ncc(N2CCC[C@H](N3CCOC3=O)C2)nc1Nc1ccc(N2CCC(C3CN(c4ccc5c(c4)C(=O)N(C4CCC(=O)NC4=O)C5=O)C3)CC2)cc1 (stereo partly drawn) [Compound 70]
- DC50 [1]: < 0.005 µM
- BTK degradation after oral dosing [3]: Yes

SMILES: CN1CCN([C@@H]2CCCN(c3cnc(C(N)=O)c(Nc4ccc(C5(C)CCN(C[C@H]6CCN(c7ccc8c(c7)C(=O)N(C7CCC(=O)NC7=O)C8=O)C6)CC5)cc4)n3)C2)C1=O (stereo partly drawn) [Compound 71]
- DC50 [1]: < 0.005 µM
- BTK degradation after oral dosing [3]: Yes

SMILES: CN1CCN([C@@H]2CCCN(c3cnc(C(N)=O)c(Nc4ccc(C5CCN(CC6CCN(c7ccc8c(=O)n(C9CCC(=O)NC9=O)ccc8c7)CC6)CC5)cc4)n3)C2)C1=O (stereo partly drawn) [Compound 72]
- DC50 [1]: < 0.005 µM
- BTK degradation after oral dosing [3]: Yes

SMILES: NC(=O)c1ncc(N2CCC[C@@H](N3CCOC3=O)C2)nc1Nc1ccc(C2CCN(C[C@H]3CCN(c4ccc5c(c4)C(=O)N(C4CCC(=O)NC4=O)C5=O)C3)CC2)cc1 (stereo partly drawn) [Compound 73]
- DC50 [1]: < 0.005 µM
- BTK degradation after oral dosing [3]: Yes

SMILES: CN1CCN([C@H]2CCCN(c3cnc(C(N)=O)c(Nc4ccc(C5(C)CCN(C6CN(c7ccc8c(c7)C(=O)N(C7CCC(=O)NC7=O)C8=O)C6)CC5)cc4)n3)C2)C1=O (stereo partly drawn) [Compound 74]
- DC50 [1]: < 0.005 µM
- BTK degradation after oral dosing [3]: Yes

SMILES: CN1CCN([C@@H]2CCCN(c3cnc(C(N)=O)c(Nc4ccc(C5(C)CCN(C6CN(Cc7ccc8c(c7)C(=O)N(C7CCC(=O)NC7=O)C8=O)C6)CC5)cc4)n3)C2)C1=O (stereo partly drawn) [Compound 75]
- DC50 [1]: < 0.005 µM
- DC50 [2]: > 1 µM

SMILES: CN1CCN([C@H]2CCCN(c3cnc(C(N)=O)c(Nc4cnn(C5CCN(CC6CN(c7ccc8c(c7)C(=O)N(C7CCC(=O)NC7=O)C8=O)C6)CC5)c4)n3)C2)C1=O (stereo partly drawn) [Compound 78]
- DC50 [1]: < 0.005 µM
- DC50 [2]: 0.01 to 1 µM

SMILES: CN1CCN([C@H]2CCCN(c3cnc(C(N)=O)c(Nc4ccc5c(c4)CCN(CC4CN(c6ccc7c(c6)C(=O)N(C6CCC(=O)NC6=O)C7=O)C4)C5)n3)C2)C1=O (stereo partly drawn) [Compound 92]
- DC50 [1]: 0.005 to 0.015 µM
- DC50 [2]: < 0.01 µM

SMILES: CN1CCN([C@H]2CCCN(c3cnc(C(N)=O)c(Nc4ccc(N5CCN(CC#Cc6cccc7c6CN(C6CCC(=O)NC6=O)C7=O)CC5)cc4)n3)C2)C1=O (stereo partly drawn) [Compound 99]
- DC50 [1]: < 0.005 µM
- DC50 [2]: > 1 µM

SMILES: NC(=O)c1ncc(N2CCCCC2)nc1Nc1ccc(N2CCC3(CCN(Cc4ccc5c(c4)C(=O)N(C4CCC(=O)NC4=O)C5=O)CC3)CC2)cc1 (stereo not drawn) [Compound 123]
- DC50 [1]: 0.005 to 0.015 µM
- DC50 [2]: > 1 µM

SMILES: Cn1cc(Nc2nc(N3CCC[C@H](N4CC5(CN(CC6CCN(c7ccc(C(=O)NC8CCC(=O)NC8=O)nc7)CC6)C5)OC4=O)C3)cnc2C(N)=O)cn1 (stereo partly drawn) [Compound 131]
- DC50 [1]: < 0.005 µM
- BTK degradation after oral dosing [3]: Yes

SMILES: NC(=O)c1ncc(-c2nccs2)nc1Nc1ccc(N2CCC3(CCN(Cc4ccc5c(c4)C(=O)N(C4CCC(=O)NC4=O)C5=O)CC3)CC2)cc1 (stereo not drawn) [Compound 150]
- DC50 [1]: 0.005 to 0.015 µM
- BTK degradation after oral dosing [3]: Yes

SMILES: CN1CCN([C@@H]2CCCN(c3cnc(C(N)=O)c(Nc4ccc(C5CCN(CCCNc6cccc7c6C(=O)N(C6CCC(=O)NC6=O)C7=O)CC5)cc4)n3)C2)C1=O (stereo partly drawn) [Compound 155]
- DC50 [1]: < 0.005 µM
- DC50 [2]: 0.01 to 1 µM

SMILES: CN1CCN([C@@H]2CCCN(c3cnc(C(N)=O)c(Nc4ccc(C5CCN(CC6CCN(c7ccc8c(c7)n(C)c(=O)n8C7CCC(=O)NC7=O)CC6)CC5)cc4)n3)C2)C1=O (stereo partly drawn) [Compound 156]
- DC50 [1]: < 0.005 µM
- DC50 [2]: < 0.01 µM

SMILES: CN1CCN(c2cnc(C(N)=O)c(Nc3ccc(C4CCN(C[C@H]5CCN(c6ccc7c(c6)C(=O)N(C6CCC(=O)NC6=O)C7=O)C5)CC4)cc3)n2)CC1 (stereo partly drawn) [Compound 157]
- DC50 [1]: 0.005 to 0.015 µM
- DC50 [2]: > 1 µM

SMILES: CN1CCN([C@@H]2CCCN(c3cnc(C(N)=O)c(Nc4ccc(C5CCN(CC6CCN(c7ccc(OC8CCC(=O)NC8=O)cn7)CC6)CC5)cc4)n3)C2)C1=O (stereo partly drawn) [Compound 166]
- DC50 [1]: < 0.005 µM
- DC50 [2]: > 1 µM
